Source: patent US20230407243A1, “GENETIC PLATFORM TO INVESTIGATE THE FUNCTIONS OF BACTERIAL DRUG EFFLUX PUMPS” (priority 2022, published 2023)
Like-named read-outs stand apart in the source and are kept apart here.

Tests used:
Format in all cases: cell-based, Escherichia coli
[1] = system: ΔtolC
Method: (§1) Synergy measurement using checkerboard analysis was performed in 96-well microtiter plates using the microdilution broth method, according to CLSI guidelines (Patel J. B., 2015). The cell inocula were prepared using the colony resuspension method. The minimum inhibitory concentrations (MICs) were defined as the lowest concentration that provided no growth, as determined by measurement of the OD600nm using a Synergy H1 microplate reader (BioTek). Susceptibility testing was performed in MHB II with a final volume of 100 μL. PAI3N (Bachem Americas) was solubilized in MHB II. […] Solvent controls were included in each plate.
(§2) The Fractional Inhibitory Concentration Index (FICI) was used to assess the synergy of PAI3N in combination with different antibiotics. The FICI represents the ΣFIC of each drug. The FICI for each drug was calculated using the following formula: FICI=FICA+FICB=(CA/MICA)+(CB/MICB). Where MICA and MICB are the MICs of drugs A (PAI3N/NMP) and B (antibiotic) alone, and CA and CB are the MICs of the drugs in combination. The effects of PAβN or NMP in combination with antibiotics were classified as: synergistic (FICI<0.5), additive (FICI>0.5-1.0), indifferent (FICI>1.0-2.0), and antagonistic (FICI>2.0). Fold increases in resistance provided by efflux pumps were calculated by dividing the MIC values of strains expressing efflux pumps by the MIC value of EKO-35.

[2] = system: EKO-35
Method: as §1, §2

[3] = system: EKO-35 acrBD408A
Method: as §1, §2

[4] = system: wild-type E. coli K-12
Method: as §1, §2

[5] = system: EKO-35 araC::acrD; assay: MIC susceptibility profiling, efflux platform; conditions: Escherichia coli; Table 13A; non-porinated; technical duplicate; read-out: Minimum Inhibitory Concentration, EKO-35 araC::acrD
Procedure, shortened: (§3)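 Steps: LB overnight culture at 37 °C; resuspension in PBS to OD600 ~1.0; 1/2000 dilution in MHB II; addition to 2-fold serial compound dilutions (duplicate); 18 h shaking incubation at 37 °C; OD600 read, with pre-read subtracted.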

[6] = system: EKO-35 araC::mdtEF; assay: MIC susceptibility profiling, efflux platform; conditions: Escherichia coli; Table 13A; non-porinated; technical duplicate; read-out: Minimum Inhibitory Concentration, EKO-35 araC::mdtEF
Procedure, shortened: as §3

[7] = system: EKO-35 araC::mdtBC; assay: MIC susceptibility profiling, efflux platform; conditions: Escherichia coli; Table 13B; non-porinated; technical duplicate; read-out: Minimum Inhibitory Concentration, EKO-35 araC::mdtBC
Procedure, shortened: as §3

[8] = system: EKO-35 araC::emrKY; assay: MIC susceptibility profiling, efflux platform; conditions: Escherichia coli; Table 13B; non-porinated; technical duplicate; read-out: Minimum Inhibitory Concentration, EKO-35 araC::emrKY
Procedure, shortened: as §3

[9] = system: EKO-35 araC::mexCD (MexCD from P. aeruginosa); assay: MIC susceptibility profiling, efflux platform; conditions: Table 13B; non-porinated; technical duplicate; read-out: Minimum Inhibitory Concentration, EKO-35 araC::mexCD
Procedure, shortened: as §3

[10] = system: EKO-35 araC::acrBD408A; assay: MIC susceptibility profiling, efflux platform; conditions: Escherichia coli; Table 13B; non-porinated; technical duplicate; read-out: Minimum Inhibitory Concentration, EKO-35 araC::acrBD408A
Procedure, shortened: as §3

[11] = system: EKO-35 araC::acrB; assay: MIC susceptibility profiling, efflux platform; conditions: Escherichia coli; Table 13A; non-porinated; technical duplicate; read-out: Minimum Inhibitory Concentration, EKO-35 araC::acrB
Procedure, shortened: as §3

[12] = EKO-35 acrBD408A, NMP + antibiotic
[13] = EKO-35 acrBD408A, PAβN + antibiotic
[14] = strain EKO-35 acrBD408A, NMP + antibiotic

## CC[C@H]1OC(=O)[C@H](C)[C@@H](O[C@H]2C[C@@](C)(OC)[C@@H](O)[C@H](C)O2)[C@H](C)[C@@H](O[C@@H]2O[C@H](C)C[C@H](N(C)C)[C@H]2O)[C@](C)(O)C[C@@H](C)C(=O)[C@H](C)[C@@H](O)[C@]1(C)O [erythromycin]
[1]; strain ΔtolC, NMP + antibiotic
  Effect: — (indifferent (FICI >1.0))
  FICI: 1.000
[1]; strain ΔtolC, antibiotic alone
  MICb Alone: 4 µg/mL
[1]; strain ΔtolC, antibiotic in combination with NMP
  MICb Combined: 2 µg/mL
[1]; ΔtolC, NMP + antibiotic
  FICI: 1.000
[1]; ΔtolC, PAβN + antibiotic
  Effect: Synergistic
  FICI: 0.188
[1]; ΔtolC, antibiotic alone (PAβN checkerboard)
  MICb Alone: 4 µg/mL
[1]; ΔtolC, antibiotic in combination with PAβN
  MICb Combined: 0.25 µg/mL
[2]; EKO-35, NMP + antibiotic
  Effect: Synergistic
[2]; EKO-35, PAβN + antibiotic
  Effect: Synergistic
  FICI: 0.093
[2]; EKO-35, antibiotic alone (PAβN checkerboard)
  MICb Alone: 2 µg/mL
[2]; EKO-35, antibiotic in combination with PAβN
  MICb Combined: 0.06 µg/mL
[2]; EKO-35 and EKO-35 acrBD408A
  interaction of NMP in combination with the labelled antibiotic (FICI): low-level synergy
[2]; efflux-deficient strains EKO-35, EKO-35 acrBD408A, ΔtolC
  interaction of PAβN in combination with the labelled antibiotic (FICI): synergized
[2]; strain EKO-35, NMP + antibiotic
  Effect: Synergistic (Synergy (FICI ≤0.5))
[2]; strain EKO-35, antibiotic alone
  MICb Alone: 2 µg/mL
[2]; strain EKO-35, antibiotic in combination with NMP
  MICb Combined: 0.25 µg/mL
[3]; [12]
  Effect: Synergistic
  FICI: 0.500
[3]; [13]
  Effect: Synergistic
  FICI: 0.190
[3]; EKO-35 acrBD408A, antibiotic alone (PAβN checkerboard)
  MICb Alone: 2 µg/mL
[3]; EKO-35 acrBD408A, antibiotic in combination with PAβN
  MICb Combined: 0.13 µg/mL
[3]; [14]
  Effect: Synergistic (Synergy (FICI ≤0.5))
  FICI: 0.500
[3]; strain EKO-35 acrBD408A, antibiotic alone
  MICb Alone: 2 µg/mL
[3]; strain EKO-35 acrBD408A, antibiotic in combination with NMP
  MICb Combined: 0.5 µg/mL
[4]; K-12, NMP + antibiotic
  Effect: Additive
  FICI: 0.625
[4]; K-12, PAβN + antibiotic
  Effect: Synergistic
  FICI: 0.094
[4]; K-12, antibiotic alone (PAβN checkerboard)
  MICb Alone: 64 µg/mL
[4]; K-12, antibiotic in combination with PAβN
  MICb Combined: 2 µg/mL
[4]; strain K-12, NMP + antibiotic
  Effect: Additive (additive (FICI >0.5-1.0))
  FICI: 0.625
[4]; strain K-12, antibiotic in combination with NMP
  MICb Combined: 16 µg/mL
[5]
  MIC: 3.12 µg/mL
[6]
  MIC: 50 µg/mL
[7]
  MIC: 3.12 µg/mL
[8]
  MIC: 3.12 µg/mL
[9]
  MIC: 25 µg/mL
[10]
  MIC: 3.12 µg/mL
[11]
  MIC: 100 µg/mL
